Data as given in patent US9211310B2, “Use of a Chinese medicine composition in preparing medicaments for treating secondary prevention of myocardial infarction” (TASLY PHARMACEUTICAL GROUP CO., LTD, priority 2010, dated 2015).

Test system: patients after acute myocardial infarction
Test: TCM symptom score, total and single (chest pain, chest tightness, short breath, fatigue, palpitation, spontaneous perspiration, pale complexion), same clinical trial
Format: in vivo, human
Set-up: total score of TCM symptom, Mean / total score of TCM symptom, Min / total score of TCM symptom, Max / total score of TCM symptom, Md / change of total score of TCM symptom, Mean / change of total score of TCM symptom, Max / change of total score of TCM symptom, Md: scale not given here
Conditions: FAS
Text: 3508 patients who were in accordance with the diagnostic standards of AMI for 28 days to 2 years and differentiated as Qi deficiency and blood stagnation syndrome by TCM were studied. 0.5 g Chinese medicine composition prepared by the method of EXAMPLE 1 (Coded as QSYQ) was administrated half an hour after meal, 3 times per day.
They included the overall survival time, angina pectoris score, TCM symptom score and life quality score, where angina pectoris score, TCM symptom score and life quality score were evaluated at randomization, in 1st, 3rd, 6th, 9th, 12th month after treatment and 18th month after follow-up.
The analysis method referred to the angina pectoris score.

[1] = 1 month after treatment-baseline
[2] = 3 month after treatment-baseline

CC(=O)Oc1ccccc1C(=O)O [Control group, aspirine]
total score of TCM symptom, Max (1 month after treatment): 34.00
total score of TCM symptom, Md (1 month after treatment): 11.00
total score of TCM symptom, Mean (1 month after treatment): 11.84
total score of TCM symptom, Min (1 month after treatment): 0.00
change of fatigue 0, % of patients [1]: (72.40%)
change of fatigue 0, number of patients [1]: 1238
change of fatigue 1, % of patients [1]: (0.06%)
change of fatigue 1, number of patients [1]: 1
change of fatigue 2, % of patients [1]: (17.72%)
change of fatigue 2, number of patients [1]: 303
change of fatigue 4, % of patients [1]: (2.63%)
change of fatigue 4, number of patients [1]: 45
change of fatigue 6, % of patients [1]: (0.76%)
change of fatigue 6, number of patients [1]: 13
change of fatigue −2, % of patients [1]: (5.73%)
change of fatigue −2, number of patients [1]: 98
change of fatigue −4, % of patients [1]: (0.64%)
change of fatigue −4, number of patients [1]: 11
change of fatigue −6, % of patients [1]: (0.06%)
change of fatigue −6, number of patients [1]: 1
change of pale complexion 0, number of patients [1]: 1477
change of pale complexion 0, percent of patients [1]: (86.48%)
change of pale complexion 1, number of patients [1]: 166
change of pale complexion 1, percent of patients [1]: (9.72%)
change of pale complexion −1, number of patients [1]: 65
change of pale complexion −1, percent of patients [1]: (3.81%)
change of palpitation 0, number of patients [1]: 1242
change of palpitation 0, percent of patients [1]: (72.63%)
change of palpitation 1, number of patients [1]: 334
change of palpitation 1, percent of patients [1]: (19.53%)
change of palpitation 2, number of patients [1]: 25
change of palpitation 2, percent of patients [1]: (1.46%)
change of palpitation 3, number of patients [1]: 5
change of palpitation 3, percent of patients [1]: (0.29%)
change of palpitation −1, number of patients [1]: 103
change of palpitation −1, percent of patients [1]: (6.02%)
change of palpitation −2, number of patients [1]: 1
change of palpitation −2, percent of patients [1]: (0.06%)
change of palpitation −3, number of patients [1]: 0
change of palpitation −3, percent of patients [1]: (0.00%)
change of short breath 0, % of patients [1]: (77.37%)
change of short breath 0, number of patients [1]: 1323
change of short breath 2, % of patients [1]: (14.74%)
change of short breath 2, number of patients [1]: 252
change of short breath 4, % of patients [1]: (1.75%)
change of short breath 4, number of patients [1]: 30
change of short breath 6, % of patients [1]: (0.41%)
change of short breath 6, number of patients [1]: 7
change of short breath −2, % of patients [1]: (5.26%)
change of short breath −2, number of patients [1]: 90
change of short breath −4, % of patients [1]: (0.47%)
change of short breath −4, number of patients [1]: 8
change of short breath −6, % of patients [1]: (0.00%)
change of short breath −6, number of patients [1]: 0
change of spontaneous perspiration 0, number of patients [1]: 1249
change of spontaneous perspiration 0, percent of patients [1]: (73.08%)
change of spontaneous perspiration 1, number of patients [1]: 279
change of spontaneous perspiration 1, percent of patients [1]: (16.33%)
change of spontaneous perspiration 2, number of patients [1]: 51
change of spontaneous perspiration 2, percent of patients [1]: (2.98%)
change of spontaneous perspiration 3, number of patients [1]: 16
change of spontaneous perspiration 3, percent of patients [1]: (0.94%)
change of spontaneous perspiration −1, number of patients [1]: 94
change of spontaneous perspiration −1, percent of patients [1]: (5.50%)
change of spontaneous perspiration −2, number of patients [1]: 17
change of spontaneous perspiration −2, percent of patients [1]: (0.99%)
change of spontaneous perspiration −3, number of patients [1]: 3
change of spontaneous perspiration −3, percent of patients [1]: (0.18%)
change of total score of TCM symptom, Max [1]: 24.00
change of total score of TCM symptom, Md [1]: 0.00
change of total score of TCM symptom, Mean [1]: −1.96
change of total score of TCM symptom, Min [1]: −33.00
change of total score of TCM symptom, Max [2]: 19.00
change of total score of TCM symptom, Md [2]: −2.00
change of total score of TCM symptom, Mean [2]: −2.91
change of total score of TCM symptom, Min [2]: −33.00
distribution of total score of TCM symptom: Medium, number of patients (3 months after treatment): 546
distribution of total score of TCM symptom: Medium, percentage of patients (3 months after treatment): (33.58%)
distribution of total score of TCM symptom: Mild, number of patients (3 months after treatment): 1066
distribution of total score of TCM symptom: Mild, percentage of patients (3 months after treatment): (65.56%)
distribution of total score of TCM symptom: Severe, number of patients (3 months after treatment): 14
distribution of total score of TCM symptom: Severe, percentage of patients (3 months after treatment): (0.86%)
fatigue score 0, % of patients (3 months after treatment): (27.96%)
fatigue score 0, number of patients (3 months after treatment): 480
fatigue score 2, % of patients (3 months after treatment): (59.76%)
fatigue score 2, number of patients (3 months after treatment): 1026
fatigue score 4, % of patients (3 months after treatment): (11.47%)
fatigue score 4, number of patients (3 months after treatment): 197
fatigue score 6, % of patients (3 months after treatment): (0.82%)
fatigue score 6, number of patients (3 months after treatment): 14
pale complexion score 0, number of patients (3 months after treatment): 809
pale complexion score 0, percent of patients (3 months after treatment): (47.12%)
pale complexion score 1, number of patients (3 months after treatment): 677
pale complexion score 1, percent of patients (3 months after treatment): (39.43%)
pale complexion score 2, number of patients (3 months after treatment): 210
pale complexion score 2, percent of patients (3 months after treatment): (12.23%)
pale complexion score 3, number of patients (3 months after treatment): 21
pale complexion score 3, percent of patients (3 months after treatment): (1.22%)
palpitation score 0, number of patients (3 months after treatment): 480
palpitation score 0, percent of patients (3 months after treatment): (27.96%)
palpitation score 2, number of patients (3 months after treatment): 894
palpitation score 2, percent of patients (3 months after treatment): (52.07%)
palpitation score 4, number of patients (3 months after treatment): 310
palpitation score 4, percent of patients (3 months after treatment): (18.05%)
palpitation score 6, number of patients (3 months after treatment): 33
palpitation score 6, percent of patients (3 months after treatment): (1.92%)
short breath score 0, % of patients (3 months after treatment): (21.78%)
short breath score 0, number of patients (3 months after treatment): 374
short breath score 3, % of patients (3 months after treatment): (58.94%)
short breath score 3, number of patients (3 months after treatment): 1012
short breath score 6, % of patients (3 months after treatment): (18.52%)
short breath score 6, number of patients (3 months after treatment): 318
short breath score 9, % of patients (3 months after treatment): (0.76%)
short breath score 9, number of patients (3 months after treatment): 13
spontaneous perspiration score 0, number of patients (3 months after treatment): 667
spontaneous perspiration score 0, percent of patients (3 months after treatment): (38.85%)
spontaneous perspiration score 1, number of patients (3 months after treatment): 846
spontaneous perspiration score 1, percent of patients (3 months after treatment): (49.27%)
spontaneous perspiration score 2, number of patients (3 months after treatment): 190
spontaneous perspiration score 2, percent of patients (3 months after treatment): (11.07%)
spontaneous perspiration score 3, number of patients (3 months after treatment): 14
spontaneous perspiration score 3, percent of patients (3 months after treatment): (0.82%)
total score of TCM symptom, Max (3 months after treatment): 33.00
